Laboratory results published in patent publication US20260070945A1, “MACROCYCLIC IMMUNOMODULATORS” (Bristol-Myers Squibb Company, priority 2022, published 2026).
*1 amine or outer side, *2 acyl side, *3 side chain or, on linkers, in order; H or OH if unused. Where a SMILES comes first, the peptide text is derived from it. Bridges are numbered along the chain shown (N, C = ends). [ ]: non-standard residue; d: D form. The star is where a group is joined. ξ: configuration not given here. Phe(3-CF3) = N[C@@H](Cc1cccc(C(F)(F)F)c1)C(=O)O; Phe(4-COOH) = N[C@@H](Cc1ccc(C(=O)O)cc1)C(=O)O; Bip = N[C@@H](Cc1ccc(-c2ccccc2)cc1)C(=O)O; NH(CH2)14COOH = O=C(O)CCCCCCCCCCCCCCN*; Phe(3-Me) = Cc1cccc(C[C@H](N)C(=O)O)c1; γGlu = O=C(O)[C@H](CCC(=O)[*:2])N[*:1]; Val(3-OH) = CC(C)(O)[C@H](N)C(=O)O; aIle = CC[C@@H](C)[C@H](N)C(=O)O; 4Pal = N[C@@H](Cc1ccncc1)C(=O)O; NMeE = CN[C@@H](CCC(=O)O)C(=O)O; 3Thi = N[C@@H](Cc1ccsc1)C(=O)O; Cha = N[C@@H](CC1CCCCC1)C(=O)O; Cit = NC(=O)NCCC[C@H](N)C(=O)O; Ile(3ξ) = CCC(C)[C@H](N)C(=O)O; NMeN = CN[C@@H](CC(N)=O)C(=O)O; Thr(3ξ) = CC(O)[C@H](N)C(=O)O; 12Ado = NCCCCCCCCCCCC(=O)O; hSer = N[C@@H](CCO)C(=O)O; Carboxymethyl = O=C(O)C*; NMeA = CN[C@@H](C)C(=O)O; Orn = NCCC[C@H](N)C(=O)O; dDap = NC[C@@H](N)C(=O)O; Aun = NCCCCCCCCCCC(=O)O; Dab = NCC[C@H](N)C(=O)O; Nva = CCC[C@H](N)C(=O)O; Dap = NC[C@H](N)C(=O)O; AEEA = NCCOCCOCC(=O)O

Molecular target: T1, PD-1/PD-L1 interaction (PE-labeled human PD-L1-Ig binding to Jurkat cell line over-expressing human PD-1) (Homo sapiens, UniProt Q15116)
T1 construct: expressed in transfected cells; host or cells: Jurkat
T1 sequence (Q15116 25-288): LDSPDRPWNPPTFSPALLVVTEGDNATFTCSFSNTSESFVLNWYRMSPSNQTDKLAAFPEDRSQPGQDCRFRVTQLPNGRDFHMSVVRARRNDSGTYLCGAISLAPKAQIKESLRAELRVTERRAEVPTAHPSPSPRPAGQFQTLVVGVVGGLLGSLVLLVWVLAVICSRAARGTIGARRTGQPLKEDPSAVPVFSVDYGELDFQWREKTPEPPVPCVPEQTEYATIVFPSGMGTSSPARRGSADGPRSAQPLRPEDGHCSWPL
Assay: Jurkat-PD-1 Cell Binding High-Content Screening Assay (CBA)
Details: Jurkat-hPD-1 cells, PE-labeled PD-L1-Ig 20 nM final; read-out: Jurkat HPD1 PDL1 IC50
Method in brief: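 Jurkat cells overexpressing human PD-1 (8×10^3/well, DMEM + 10% FCS) preincubated with compound 2 h at 37 °C, then PE-labelled human PD-L1-Ig (20 nM final) for 1 h. Cells fixed in paraformaldehyde with Hoechst 33342; bound PD-L1 quantified by high-content imaging.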

Structure (SMILES)	IC50
Cc1cccc(C[C@@H]2NC(=O)[C@H](CC(=O)O)NC(=O)[C@H](Cc3ccc(OCC(=O)O)cc3)NC(=O)[C@H](CCCNC(=N)N)NC(=O)CSC[C@@H](C(=O)N[C@H](CC(N)=O)C(=O)NCCCCCCCCCCC(=O)O)NC(=O)[C@H](CCO)NC(=O)[C@H](C(C)C)NC(=O)[C@H](CC3CCCCC3)NC(=O)[C@H](CCN)NC(=O)[C@@H](CC(C)C)NC(=O)[C@H](C)N(C)C(=O)[C@H](Cc3ccc(OCC(=O)O)cc3)NC(=O)[C@H](Cc3ccc(-c4ccccc4)cc3)NC(=O)[C@H](Cc3ccc(OCC(=O)O)cc3)NC2=O)c1 [Example 2362] ({CH2CO}-RY(Carboxymethyl)D[Phe(3-Me)]Y(Carboxymethyl)[Bip]Y(Carboxymethyl)[NMeA][dL][Dab][Cha]V[hSer]C[dN][Aun]-OH; thioether N-14)	40.2 nM
CC[C@@H](C)[C@@H]1NC(=O)[C@H](Cc2ccc(-c3ccccc3)cc2)NC(=O)[C@H](C(C)C)NC(=O)[C@H](Cc2c[nH]c3ccccc23)NC(=O)[C@H](CC(=O)O)NC(=O)[C@H](Cc2ccc(OCC(=O)O)cc2)NC(=O)[C@H](Cc2ccncc2)NC(=O)CSC[C@@H](C(=O)N[C@H](CN)C(=O)NCCOCCOCC(=O)N[C@@H](CCC(=O)NCCOCCOCC(=O)N[C@@H](CCC(=O)NCCOCCOCC(=O)N[C@@H](CCCN)C(=O)NCCCCCCCCCCC(=O)O)C(=O)O)C(=O)O)NC(=O)[C@H](Cc2c[nH]cn2)NC(=O)[C@H](C(C)C)NC(=O)[C@H](CC2CCCCC2)NC(=O)[C@H](CC(N)=O)NC(=O)[C@@H](CC(C)C)NC(=O)[C@H](C)N(C)C1=O [Example 2013] ({CH2CO}-[4Pal]Y(Carboxymethyl)DWV[Bip][aIle][NMeA][dL]N[Cha]VHC[dDap][AEEA][γGlu][AEEA][γGlu][AEEA][Orn][Aun]-OH; thioether N-14)	74.1 nM
Cc1cccc(C[C@@H]2NC(=O)[C@H](CC(=O)O)NC(=O)[C@H](Cc3ccc(C(=O)O)cc3)NC(=O)[C@H](Cc3ccc(OCC(=O)O)cc3)NC(=O)CSC[C@@H](C(=O)NCCCCCCCCCCC(=O)O)NC(=O)[C@H](C(C)O)NC(=O)[C@H](C(C)C)NC(=O)[C@H](CC3CCCCC3)NC(=O)[C@H](CCN)NC(=O)[C@@H](CC(C)C)NC(=O)[C@H](C)N(C)C(=O)[C@H](Cc3ccc(O)cc3)NC(=O)[C@H](Cc3ccc(-c4ccccc4)cc3)NC(=O)[C@H](Cc3ccc(O)cc3)NC2=O)c1 (stereo partly drawn) [Example 2331] ({CH2CO}-Y(Carboxymethyl)[Phe(4-COOH)]D[Phe(3-Me)]Y[Bip]Y[NMeA][dL][Dab][Cha]V[Thr(3ξ)]C[Aun]-OH; thioether N-14)	160 nM

Further lines, results first:

IC50	Structure (SMILES)
108 nM	CCC(C)[C@@H]1NC(=O)[C@H](Cc2ccc(-c3ccccc3)cc2)NC(=O)[C@H](C(C)C)NC(=O)[C@H](Cc2c[nH]c3ccccc23)NC(=O)[C@H](CC(=O)O)NC(=O)[C@H](Cc2ccc(OCC(=O)O)cc2)NC(=O)[C@H](C(C)O)NC(=O)CSC[C@@H](C(=O)N[C@@H](CCCN)C(=O)N[C@@H](CO)C(=O)NCCCCCCCCCCCC(=O)O)NC(=O)[C@H](C(C)O)NC(=O)[C@H](C(C)C)NC(=O)[C@H](CC2CCCCC2)NC(=O)[C@H](CCN)NC(=O)[C@@H](CC(C)C)NC(=O)[C@H](C)N(C)C1=O (stereo partly drawn) [Example 2410] ({CH2CO}-[Thr(3ξ)]Y(Carboxymethyl)DWV[Bip][Ile(3ξ)][NMeA][dL][Dab][Cha]V[Thr(3ξ)]C[Orn]S[12Ado]-OH; thioether N-14)
19.9 nM	Cc1cccc(C[C@@H]2NC(=O)[C@H](CC(=O)O)NC(=O)[C@H](Cc3ccc(OCC(=O)O)cc3)NC(=O)[C@H](C(C)O)NC(=O)CSC[C@@H](C(=O)N(C)[C@@H](CC(N)=O)C(=O)NCCOCCOCC(=O)NCCCCCCCCCCC(=O)O)NC(=O)[C@H](CCCNC(N)=O)NC(=O)[C@H](C(C)C)NC(=O)[C@H](CC3CCCCC3)NC(=O)[C@H](CCN)NC(=O)[C@@H](CC(C)C)NC(=O)[C@H](C)N(C)C(=O)[C@H](C(C)C)NC(=O)[C@H](Cc3ccc(-c4ccccc4)cc3)NC(=O)[C@H](C(C)C)NC2=O)c1 (stereo partly drawn) [Example 2305] ({CH2CO}-[Thr(3ξ)]Y(Carboxymethyl)D[Phe(3-Me)]V[Bip]V[NMeA][dL][Dab][Cha]V[Cit]C[NMeN][AEEA][Aun]-OH; thioether N-14)
130 nM	Cc1cccc(C[C@@H]2NC(=O)[C@H](CC(=O)O)NC(=O)[C@H](Cc3ccc(OCC(=O)O)cc3)NC(=O)[C@H](C(C)O)NC(=O)CSC[C@@H](C(=O)N(C)[C@@H](CCC(=O)O)C(=O)NCCCCCCCCCCC(=O)O)NC(=O)[C@H](CO)NC(=O)[C@H](C(C)C)NC(=O)[C@H](CC3CCCCC3)NC(=O)[C@H](CCN)NC(=O)[C@@H](CC(C)C)NC(=O)[C@H](C)N(C)C(=O)[C@H](C(C)C)NC(=O)[C@H](Cc3ccc(-c4ccccc4)cc3)NC(=O)[C@H](C(C)C)NC2=O)c1 (stereo partly drawn) [Example 2299] ({CH2CO}-[Thr(3ξ)]Y(Carboxymethyl)D[Phe(3-Me)]V[Bip]V[NMeA][dL][Dab][Cha]VSC[NMeE][Aun]-OH; thioether N-14)
6 nM	CCC(C)[C@@H]1NC(=O)[C@H](Cc2ccc(-c3ccccc3)cc2)NC(=O)[C@H](C(C)C)NC(=O)[C@H](Cc2c[nH]c3ccccc23)NC(=O)[C@H](CC(=O)O)NC(=O)[C@H](Cc2ccc(OCC(=O)O)cc2)NC(=O)[C@H](Cc2ccc(OCC(=O)O)cc2)NC(=O)CSC[C@@H](C(=O)N[C@H](CC(N)=O)C(=O)NCCCCCCCCCCC(=O)O)NC(=O)[C@H](CCCCN)NC(=O)[C@H](C(C)C)NC(=O)[C@H](CC2CCCCC2)NC(=O)[C@H](CCN)NC(=O)[C@@H](CC(C)C)NC(=O)[C@H](C)N(C)C1=O (stereo partly drawn) [Example 2239] ({CH2CO}-Y(Carboxymethyl)Y(Carboxymethyl)DWV[Bip][Ile(3ξ)][NMeA][dL][Dab][Cha]VKC[dN][Aun]-OH; thioether N-14)
9.7 nM	Cc1cccc(C[C@@H]2NC(=O)[C@H](CC(=O)O)NC(=O)[C@H](Cc3ccc(OCC(=O)O)cc3)NC(=O)[C@H](C(C)O)NC(=O)CSC[C@@H](C(=O)N[C@H](CC(N)=O)C(=O)NCCCCCCCCCCC(=O)O)NC(=O)[C@H](C(C)O)NC(=O)[C@H](C(C)C)NC(=O)[C@H](CC3CCCCC3)NC(=O)[C@H](CCN)NC(=O)[C@@H](CC(C)C)NC(=O)[C@H](C)N(C)C(=O)[C@H](CCCNC(N)=O)NC(=O)[C@H](Cc3ccc(-c4ccccc4)cc3)NC(=O)[C@H](Cc3ccccc3)NC2=O)c1 (stereo partly drawn) [Example 2315] ({CH2CO}-[Thr(3ξ)]Y(Carboxymethyl)D[Phe(3-Me)]F[Bip][Cit][NMeA][dL][Dab][Cha]V[Thr(3ξ)]C[dN][Aun]-OH; thioether N-14)
109 nM	CCC(C)[C@@H]1NC(=O)[C@H](Cc2ccc(-c3ccccc3)cc2)NC(=O)[C@H](C(C)C)NC(=O)[C@H](Cc2c[nH]c3ccccc23)NC(=O)[C@H](CC(=O)O)NC(=O)[C@H](Cc2ccc(OCC(=O)O)cc2)NC(=O)[C@H](CN)NC(=O)CSC[C@@H](C(=O)N[C@@H](CCCN)C(=O)N[C@@H](CO)C(=O)NCCCCCCCCCCCC(=O)O)NC(=O)[C@H](C(C)O)NC(=O)[C@H](C(C)C)NC(=O)[C@H](CC2CCCCC2)NC(=O)[C@H](CCN)NC(=O)[C@@H](CC(C)C)NC(=O)[C@H](C)N(C)C1=O (stereo partly drawn) [Example 2409] ({CH2CO}-[Dap]Y(Carboxymethyl)DWV[Bip][Ile(3ξ)][NMeA][dL][Dab][Cha]V[Thr(3ξ)]C[Orn]S[12Ado]-OH; thioether N-14)

Same assay, conditions: PE-labeled PD-L1-Ig 20 nM final, Jurkat-hPD-1 cells; read-out: Jurkat HPD1 PDL1 IC50

IC50	Structure (SMILES)
18.1 nM	CCC(C)[C@@H]1NC(=O)[C@H](Cc2ccc(-c3ccccc3)cc2)NC(=O)[C@H](CC(C)C)NC(=O)[C@H](Cc2c[nH]c3ccccc23)NC(=O)[C@H](CC(=O)O)NC(=O)[C@H](Cc2ccc(OCC(=O)O)cc2)NC(=O)[C@H](Cc2ccsc2)NC(=O)CSC[C@@H](C(=O)N[C@@H](CCN)C(=O)NCCOCCOCC(=O)NCCCCCCCCCCC(=O)O)NC(=O)[C@H](CCC(=O)O)NC(=O)[C@H](C(C)(C)O)NC(=O)[C@H](CC2CCCCC2)NC(=O)[C@H](CCN)NC(=O)[C@@H](CC(C)C)NC(=O)[C@H](C)N(C)C1=O (stereo partly drawn) [Example 2510] ({CH2CO}-[3Thi]Y(Carboxymethyl)DWL[Bip][Ile(3ξ)][NMeA][dL][Dab][Cha][Val(3-OH)]EC[Dab][AEEA][Aun]-OH; thioether N-14)
99.4 nM	CC(=O)NCCCC[C@@H]1NC(=O)[C@H](C(C)(C)O)NC(=O)[C@H](CC2CCCCC2)NC(=O)[C@H](CCN)NC(=O)[C@@H](CC(C)C)NC(=O)[C@H](C)N(C)C(=O)[C@H](CCCNC(N)=O)NC(=O)[C@H](Cc2ccc(-c3ccccc3)cc2)NC(=O)[C@H](Cc2ccc(OCC(=O)O)cc2)NC(=O)[C@H](Cc2cccc(C(F)(F)F)c2)NC(=O)[C@H](CC(=O)O)NC(=O)[C@H](Cc2ccc(OCC(=O)O)cc2)NC(=O)[C@H](CCN)NC(=O)CSC[C@@H](C(=O)N[C@@H](CCN)C(=O)NCCCCCCCCCCCCCCC(=O)O)NC1=O [Example 2623] ({CH2CO}-[Dab]Y(Carboxymethyl)D[Phe(3-CF3)]Y(Carboxymethyl)[Bip][Cit][NMeA][dL][Dab][Cha][Val(3-OH)]K(Ac)C[Dab]-{NH(CH2)14COOH}; thioether N-14)
24.1 nM	CCC[C@@H]1NC(=O)CSC[C@@H](C(=O)N[C@@H](CCN)C(=O)NCCOCCOCC(=O)NCCCCCCCCCCC(=O)O)NC(=O)[C@H](CCC(=O)O)NC(=O)[C@H](CO)NC(=O)[C@H](CC2CCCCC2)NC(=O)[C@H](CCN)NC(=O)[C@@H](CC(C)C)NC(=O)[C@H](C)N(C)C(=O)[C@H](Cc2ccc(OCC(=O)O)cc2)NC(=O)[C@H](Cc2ccc(-c3ccccc3)cc2)NC(=O)[C@H](Cc2ccc(OCC(=O)O)cc2)NC(=O)[C@H](Cc2cccc(C)c2)NC(=O)[C@H](CC(=O)O)NC(=O)[C@H](Cc2ccc(C(=O)O)cc2)NC1=O [Example 2561] ({CH2CO}-[Nva][Phe(4-COOH)]D[Phe(3-Me)]Y(Carboxymethyl)[Bip]Y(Carboxymethyl)[NMeA][dL][Dab][Cha]SEC[Dab][AEEA][Aun]-OH; thioether N-14)
